Consider three compounds from US20200289430A1, “Antibacterial Treatments Using Cannabinoids” (priority 2017, published 2020).

Common to all, as to type: cell-based
The test system of test [1] is Propionibacterium acnes Erythromycin Resistant Clinical Isolates. Put plainly: MIC, Macrodilution Broth Method, Erythromycin resistant P. acnes clinical isolates. The note with it: for MIC: Cutibacterium acnes, read-out: Minimum Inhibitory Concentration (MIC); for Minimum Inhibitory Concentration (MIC): Erythromycin resistant P. acnes clinical isolate BSLI #281014Pa6. The text has this:
(§1) This study, a Minimum Inhibitory Concentration (MIC), will be performed based upon the Macrodilution Broth Method outlined in CLSJ Document M07-A 10, Methods for Dilution Antimicrobial Susceptibility Tests for Bacteria that Gro111 Aerobically, Tenth Edition, and CLSI Document MI I-A8, Methods for Antimicrobial Susceptibility Testing of Anaerobic Bacteria, Eighth Edition.
(§2) The Test Material will be evaluated versus at total of 17 different microorganism strains: 7 strains of Methicillin resistant Staphylococcus aureus, 6 stains of Propionibacterium acnes, 2 strains of Erythromycin resistant Propionibacterium acnes, and 2 strains of Tetracycline resistant Propionibacterium acnes. Positive Control Material #1 will be evaluated versus 2 strains of Erythromycin resistant Propionibacterium acnes. Positive Control Material #2 will be evaluated versus 2 strains of Tetracycline resistant Propionibacterium acnes.
(§3) A suspension of each challenge strain will be prepared and exposed to each of 10 doubling dilutions of the test material or positive control materials prepared in the appropriate nutrient broth (reference Table I). Following incubation, the Minimum Inhibitory Concentration (MIC) of the test material and positive control materials will be determined visually and documented.
(§4) 2 to 6 days prior to testing, sterile tubes containing Reinforced Clostridial Medium (RCM) will be inoculated from lyophilized vials or cryogenic stock cultures containing these species. The broth cultures will be incubated anaerobically at 35±2° C. for 1 to 3 days, or until sufficient growth is observed.
(§5) The purity of each broth culture will be verified by preparing duplicate isolation streaks on Chocolate Agar with Enrichment (CAE), and incubating one plate aerobically and one anaerobically at 35±2° C.
(§6) Following incubation, initial suspensions containing approximately 10^8 CFU/mL will be prepared for each species by centrifuging the broth culture tubes, combining the resulting pellets, and resuspending them in additional broth.
(§7) Final Challenge Suspensions containing approximately 1×10^6 CFU/mL of each microorganism strain will be prepared by transferring aliquots of the 10^8 CFU/mL initial suspensions into separate containers containing a volume of the appropriate broth media sufficient to the needs of testing.
(§8) On each day of testing, the Test Material will be diluted (v/v) using the appropriate broth media to produce an intermediate solution containing […] of Cannabidiol.
(§9) A series of 1:2 (v/v) dilutions of intermediate Test Material solution will be prepared using the appropriate broth media, to produce active concentrations of 100 μg/mL, 50 μg/mL, 25 μg/mL, 12.5 μg/mL, 6.25 μg/mL, 3.125 μg/mL, 1.562 μg/mL, 0.781 μg/mL, 0.390 μg/mL, and 0.195 μg/mL. […]

The test system of test [2] is Propionibacterium acnes Tetracycline Resistant Clinical Isolates. Put plainly: microbe, parasite or virus in culture. Conditions: Cutibacterium acnes.
Source text: as §1, §2, §3, §4, §5, §6, §7, §8, §9

The next test concerns Propionibacterium acnes. Nature of the test: Minimum Inhibitory Concentration (MIC), Macrodilution Broth Method, Propionibacterium acnes ATCC strains. The note with it: Cutibacterium acnes.
Source text: as §1, §2, §3, §4, §5, §6, §7, §8
(§10) A series of 1:2 (v/v) dilutions of intermediate Test Material solution will be prepared using the appropriate broth media, to produce active concentrations of 100 μg/mL, 50 μg/mL, 25 μg/mL, 12.5 μg/mL, 6.25 μg/mL, 3.125 μg/mL, 1.562 μg/mL, 0.781 μg/mL, 0.390 μg/mL, and 0.195 μg/mL.
(§11) A 1.0 mL aliquot of the intermediate Test Material solution (100 μg/mL), and 1.0 mL aliquots of each of the 9 test material dilutions prepared will be transferred to separate sterile test tubes. For each challenge microorganism, three sets of test tubes will be prepared for the Test Material.
(§12) A 1.0 mL aliquot of a challenge suspension containing approximately 1×10^6 CFU/mL will be dispensed into each dilution tube in each series.
(§13) Following inoculation, final active Test Material concentrations of 50 μg/mL, 25 μg/mL, 12.5 μg/mL, 6.25 μg/mL, 3.125 ug/ml, 1.562 μg/mL, 0.781 μg/mL, 0.390 ug/ml, 0.195 μg/mL and 0.0976 μg/mL will be produced.
(§14) Each dilution tube will contain approximately 5×10^5 CFU/mL of the challenge microorganism.
Positive Control Tubes (Growth Controls) containing a 1.0 mL aliquot of the appropriate broth media, and a 1.0 mL aliquot of challenge suspension will be prepared using each microorganism strain.
Negative Control Tubes (Sterility Controls; no microbial inoculation) of each broth media will be prepared.
Following incubation, the tubes will be examined for growth of the challenge microorganism, as determined visually on the basis of turbidity.

In test [3] the test system is Methicillin resistant Staphylococcus aureus. Put plainly: microbe, parasite or virus in culture.
Source text: as §1, §2, §3
2 to 4 days prior to testing, inocula from lyophilized vials or cryogenic stock cultures containing each species will be suspended in 0.9% Sodium Chloride Irrigation, USP (SCI), inoculated onto the surface of Tryptic Soy Agar (TSA) contained in Petri plates, and incubated at 35±2° C. for 24 to 48 hours, or until sufficient growth is observed.
24 to 48 hours prior to testing, growth from the agar plates previously prepared will be suspended in SCI.
The purity of each suspension will be verified by preparing isolation streaks of each culture on TSA. Aliquots of each suspension will then be spread-plated onto the surface of additional plates of TSA and incubated at 35±2° C. until sufficient growth is observed. This will produce lawns of the bacteria on the surface of the agar plates, and growth from these will be used to prepare the challenge suspensions.
Immediately prior to testing, an initial suspension of each species will be prepared in SCI by suspending the microorganisms from the solid media to achieve initial suspension concentrations of approximately 10^8 CFU/mL. The suspensions may be centrifuged, if deemed necessary, to achieve the desired concentration.
as §7, §8, §10, §11, §12, §13, §14

Where [4] appears, read: read-out: Minimum Inhibitory Concentration (MIC), Tetracycline resistant P. acnes clinical isolate BSLI #281014Pa2.
Where [5] appears, read: read-out: Minimum Inhibitory Concentration (MIC), Tetracycline resistant P. acnes clinical isolate BSLI #281014Pa4.

Values after ≈ are worked out from the molar mass of the structure shown. Counter-ions that a name gives are not always drawn. Like-named read-outs stand apart in the source and are kept apart here.

As to `CC[C@H]1OC(=O)[C@H](C)[C@@H](O[C@H]2C[C@@](C)(OC)[C@@H](O)[C@H](C)O2)[C@H](C)[C@@H](O[C@@H]2O[C@H](C)C[C@H](N(C)C)[C@H]2O)[C@](C)(O)C[C@@H](C)C(=O)[C@H](C)[C@@H](O)[C@]1(C)O` [Erythromycin, reference compound], in test [1], the MIC is 2050 µg/mL (≈ 2790 µM) and the “Minimum Inhibitory Concentration (MIC)” value amounted to 2048 µg/mL.

Consider `CN(C)[C@@H]1C(O)=C(C(N)=O)C(=O)[C@@]2(O)C(O)=C3C(=O)c4c(O)cccc4[C@@](C)(O)[C@H]3C[C@@H]12` [Tetracycline HCl, reference compound], for which the values for the MIC in test [2] (setting [4]) and in test [2] (setting [5]) were 64 µg/mL and 128 µg/mL, respectively.

`C=C(C)[C@@H]1CCC(C)=C[C@H]1c1c(O)cc(CCCCC)cc1O` [Cannabidiol]: the MIC with Propionibacterium acnes (ATCC6919, Propionibacterium acnes ATCC #6919, anaerobic, RCM broth, read-out: Minimum Inhibitory Concentration (MIC)) stood at 3.12 µg/mL (≈ 9.94 µM); with Propionibacterium acnes (ATCC6922, Propionibacterium acnes ATCC #6922, anaerobic, RCM broth, read-out: Minimum Inhibitory Concentration (MIC)), 6.25 µg/mL (≈ 19.9 µM); in the test on Propionibacterium acnes (ATCC6923, Propionibacterium acnes ATCC #6923, anaerobic, RCM broth, read-out: Minimum Inhibitory Concentration (MIC)), 6.25 µg/mL (≈ 19.9 µM); in the test on Propionibacterium acnes (ATCC11827, Propionibacterium acnes ATCC #11827, anaerobic, RCM broth, read-out: Minimum Inhibitory Concentration (MIC)) it was 3.12 µg/mL (≈ 9.94 µM); with Propionibacterium acnes (ATCC11828, Propionibacterium acnes ATCC #11828, anaerobic, RCM broth, read-out: Minimum Inhibitory Concentration (MIC)) it was 6.25 µg/mL (≈ 19.9 µM); with Propionibacterium acnes (ATCC51277, Propionibacterium acnes ATCC #51277, anaerobic, RCM broth, read-out: Minimum Inhibitory Concentration (MIC)), 6.25 µg/mL (≈ 19.9 µM). The MIC in the test with Propionibacterium acnes (all P. acnes strains tested, including strains resistant to other antibiotics, read-out: MIC against Propionibacterium acnes (summary over all strains)) is 3.12 to 6.25 µg/mL (≈ 9.94 to 19.9 µM); in test [1], 6.25 µg/mL (≈ 19.9 µM); in test [2] (setting [4]) it was 3.12 µg/mL (≈ 9.94 µM); in test [2] (setting [5]), 6.25 µg/mL (≈ 19.9 µM); in test [3] (ATCC33592, read-out: Minimum Inhibitory Concentration (MIC)), 1.56 µg/mL (≈ 4.97 µM); in test [3] (ATCCBAA41, read-out: Minimum Inhibitory Concentration (MIC)) it was 1.56 µg/mL (≈ 4.97 µM). Moreover, the MIC was 1.56 µg/mL (≈ 4.97 µM) in test [3] (ATCCBAA42, read-out: Minimum Inhibitory Concentration (MIC)); 1.56 µg/mL (≈ 4.97 µM) in test [3] (ATCCBAA44, read-out: Minimum Inhibitory Concentration (MIC)); 1.56 µg/mL (≈ 4.97 µM) in test [3] (ATCCBAA1683, read-out: Minimum Inhibitory Concentration (MIC)); 1.56 µg/mL (≈ 4.97 µM) in test [3] (ATCCBAA2094, read-out: Minimum Inhibitory Concentration (MIC)); 1.56 µg/mL (≈ 4.97 µM) in test [3] (ATCCBAA2313, read-out: Minimum Inhibitory Concentration (MIC)); about 1.56 µg/mL (≈ 4.97 µM) in test [3] (read-out: MIC against Staphylococcus aureus (summary over all strains)). Also, in test [1], the “Minimum Inhibitory Concentration (MIC)” value stood at 6.25 µg/mL.
